Source: EP2054729B1, “PROCESS AND APPARATUS FOR ION CHANNEL CHARACTERIZATION” (Universität Hannover, priority 2006, dated 2008)

Molecular target: T1, connexin hCx26 (Homo sapiens, UniProt P29033)
T1 construct: made in house; host or cells: E. coli Top10
Experiment: Permeation (gating activity) assay with ion channel protein in lipid membrane vesicles, fluorescence detection of Lucifer Yellow release
Type: biochemical
Settings: for inhibitory effect: concentration range in which inhibition of gating activity was shown, same experimental setup as for carbenoxolone, vesicles adjusted to 50 µM Ca^2+, triggered by EDTA addition or heat pulse
Protocol: Lipid membrane vesicles are generated by resuspending a POPC lipid film in 150 mM sodium chloride, 10 mM Tris-HCl, pH 8, containing Lucifer Yellow as a replacement for the cation species permeated by the exemplary ion channel protein.
Following centrifugation, the supernatant is removed and vesicles are suspended in the same medium for 10 minutes. As the ion channel protein, connexin hCx26, reconstituted to its hexameric form after expression in the E.coli strain Top10 (Invitrogen), using the expression plasmid pTrcHisTOPO (available from Invitrogen, Germany) containing the hCx26 gene under the control of a trc-promoter. The gene sequence is accessible at GenBank under accession number NP 003995. Cultivation was in LB-medium containing ampicillin as the selection marker at 37 °C.
For incorporation of ion channel protein, 250 µg/mL were solubilised in 30 mM octylglucoside, 150 mM sodium chloride, 10 mM Tris-HCl, pH 8 and added to 1 mL lipid membrane vesicle suspension (10 mg POPC/mL). After incubation for 1 to 12 hours under mild agitation at 4 °C, detergent was removed by dialysis for two days at 4 °C in 150 mM sodium chloride, 10 mM Tris-HCl, pH 8, including three changes of buffer volume. Finally, the vesicles were transferred by dialysis against buffer into 150 mM sodium chloride, 10 mM Tris-HCl, pH 8 at 4 °C for removal of the ion species, namely the replacement Lucifer Yellow or the physiologically permeated ion potassium, which are permeated by the ion channel protein present. […]
Starting at a basic temperature of 4 °C, the microtiter plate was heated incrementally by steps of 2 °C each using a thermostat, with intermediate or permanent measurement of fluorescence emission under irradiation at the excitation wavelength.
From a comparison of the increase of fluorescence at increasing temperatures of a reaction composition containing the effector to that measured for an identical composition, except for the absence of effector, allows to characterize the effector at its given concentration in the assay, e.g. as an inhibitor, activator or modulator of the gating activity. […]

| Molecule | inhibitory effect | concentration dependency of gating activity (carbenoxolone up to final concentrations of 10 mM, plate at 28 °C, result shown graphically only (Figures 9 and 10)) |
| --- | --- | --- |
| cobalt ions | millimolar to micromolar range |  |
| CC1(C)[C@@H](OC(=O)CCC(=O)O)CC[C@]2(C)[C@H]3C(=O)C=C4[C@@H]5C[C@@](C)(C(=O)O)CC[C@]5(C)CC[C@@]4(C)[C@]3(C)CC[C@@H]12 [carbenoxolone] |  | inhibitory effect |
| CCCCCCCO [heptanol] | nanomolar to picomolar range |  |
